“Also recorded” adds a separate entry of the source.
What was measured:
[1] = Biodistribution in healthy and SRC bearing rats at 1 h after i.v. injection of radiolabelled compounds; assay type: in vivo; details: mean ± SD (n = 3); for Tumor: SRC (Swarm Rat Chondrosarcoma) bearing rats; for Articular Cartilage / Bladder / Blood / Kidney / Muscle / Liver: healthy and SRC bearing rats; for Liver: ND: at undetectable levels
Protocol: Quantitative biodistribution of radiolabelled compounds was determined in rats: healthy animals as well as rats with primary grade II orthotopic chondrosarcoma at stage Day-30 after induction. The chondrosarcoma model was the Swarm Rat Chondrosarcoma model (SRC) implanted in paratibial location. Radiolabelled compounds (5-10 Mbq/animal) were i.v. administered in the caudal vein of animals being anesthetized of mixture of ketamine (58 mg/kg i.p.) (Imalgéne 500®) and xylazine (6 mg/kg i.p.) (Rompun® 2%, Bayer, France). One hour after injection, animals were then sacrificed by CO2 inhalation, dissected and organs of interest removed, weighed and their radioactivity counted using a gamma counter (Model 1480 Wizard, Perkin Elmer Life Sciences, Boston, USA). Organs collected were blood, muscle, knee, kidneys, liver, thoracic ribs, bladder for both healthy and chondrosarcoma bearing rats. For SRC animals, tumour was also sampled. After radioactive decay correction, results were expressed for each organ as % injected dose per gram (% ID/g) and averaged per group.

[2] = Study 2: biodistribution in healthy New Zealand rabbits (gamma counting of dissected organs); assay type: in vivo; details: for Uptake ratio Cartilage/Bone / Uptake ratio Cartilage/Muscle / Articular Cartilage / Bile / Blood / Bone / Bone Marrow / Kidney / Liver / Lung / Muscle / Spleen / Thyroid / Urine: i.v.
Protocol: Biodistribution were determined in 36 healthy New Zealand rabbits (18 males and 18 females, 14 weeks old, 3.5 kg weight, Charles River, France), being randomly divided into two groups: • One group receiving ^99mTc-NTP 15-5: 18±3 MBq/animal for biodistribution; • One group receiving ^64Cu-2: 17±4 MBq/animal for biodistribution.
The compounds were i.v. administered to anesthetized animals (ketamine/xylazine by intramuscular route) in the marginal ear vein.
At selected time points after injection (15 min, 1 h, 3 h, 6 h, 20 h after injection), animals (3 animals/time point/compound) were sacrificed by a lethal i.v. dose of pentobarbital. Organs of interest were dissected, weighed and their radioactivity measured using a gamma counter (Model 1480 Wizard, Perkin Elmer Life Sciences, Boston, USA). After radioactive decay correction, results were expressed for each organ as % injected dose per gram (% ID/g) and averaged per group and per time point.

## CC[N+](CC)(CC)CCCN1CCNCCNCCNCCNCC1.[64Cu+2] [^64Cu-2, [^64Cu]—N,N,N-Triethyl-3-(1,4,7,10,13-pentaazacyclopentadecan-1-yl)propan-1-aminium copper(II)]
[1]
  Tumor: 3.5 ± 0.5 % ID/g
  Articular Cartilage: 2.6 ± 1.1 % ID/g
  Bladder: 62.2 ± 17.6 % ID/g
  Blood: 0.1 ± 0.05 % ID/g
  Kidney: 16.4 ± 6.6 % ID/g
  Muscle: 0.4 ± 0.3 % ID/g
[2]
  Accumulation in kidneys compared to ^99mTc-NTP 15-5: significantly higher
  Cartilage/muscle and cartilage/Bone ratios compared to ^99mTc-NTP 15-5: higher
  Duration of liver accumulation compared to ^99mTc-NTP 15-5: shorter
[2]; as early as 15 min p.i.
  Accumulation in cartilage (onset): rapidly accumulate
[2]; each time investigated
  Uptake into the cartilages compared to ^99mTc-NTP 15-5: faster and higher uptake; also recorded: higher levels
[2]; 15 min
  Uptake ratio Cartilage/Bone: 120
  Uptake ratio Cartilage/Muscle: 282
[2]; 15 min after injection
  Articular Cartilage: 8.46 ± 6.18 % ID/g
  Bile: 0.07 ± 0.04 % ID/g
  Blood: 0.31 ± 0.17 % ID/g
  Bone: 0.07 ± 0.02 % ID/g
  Bone Marrow: 0.08 ± 0.04 % ID/g
  Kidney: 0.65 ± 0.47 % ID/g
  Liver: 0.11 ± 0.03 % ID/g
  Lung: 0.23 ± 0.14 % ID/g
  Muscle: 0.03 ± 0.02 % ID/g
  Spleen: 0.11 ± 0.08 % ID/g
  Thyroid: 0.11 ± 0.08 % ID/g
  Urine: 1.51 ± 2.22 % ID/g
[2]; 1 h
  Uptake ratio Cartilage/Bone: 484
  Uptake ratio Cartilage/Muscle: 484
[2]; 1 h after injection
  Articular Cartilage: 4.81 ± 1.16 % ID/g
  Bile: 0.03 ± 0.02 % ID/g
  Blood: 0.08 ± 0.02 % ID/g
  Bone: 0.01 ± 0.00 % ID/g
  Bone Marrow: 0.03 ± 0.01 % ID/g
  Kidney: 0.26 ± 0.07 % ID/g
  Liver: 0.04 ± 0.01 % ID/g
  Lung: 0.07 ± 0.02 % ID/g
  Muscle: 0.01 ± 0.00 % ID/g
  Spleen: 0.03 ± 0.01 % ID/g
  Thyroid: 0.03 ± 0.01 % ID/g
  Urine: 1.69 ± 2.14 % ID/g
[2]; 3 h after injection
  Articular Cartilage: 2.31 ± 0.32 % ID/g
  Bile: 0.11 ± 0.17 % ID/g
  Blood: 0.02 ± 0.00 % ID/g
  Bone: 0.01 ± 0.00 % ID/g
  Bone Marrow: 0.01 ± 0.00 % ID/g
  Kidney: 0.22 ± 0.01 % ID/g
  Liver: 0.02 ± 0.00 % ID/g
  Lung: 0.03 ± 0.00 % ID/g
  Muscle: 0.00 ± 0.00 % ID/g
  Spleen: 0.02 ± 0.00 % ID/g
  Thyroid: 0.04 ± 0.05 % ID/g
  Urine: 0.92 ± 0.63 % ID/g
[2]; 6 h after injection
  Articular Cartilage: 1.00 ± 1.02 % ID/g
  Bile: 0.02 ± 0.02 % ID/g
  Blood: 0.02 ± 0.02 % ID/g
  Bone: 0.00 ± 0.00 % ID/g
  Bone Marrow: 0.01 ± 0.01 % ID/g
  Kidney: 0.26 ± 0.14 % ID/g
  Liver: 0.02 ± 0.02 % ID/g
  Lung: 0.02 ± 0.02 % ID/g
  Muscle: 0.00 ± 0.00 % ID/g
  Spleen: 0.02 ± 0.02 % ID/g
  Thyroid: 0.00 ± 0.00 % ID/g
  Urine: 6.90 ± 7.93 % ID/g
[2]; 20 h after injection
  Articular Cartilage: 0.10 ± 0.02 % ID/g
  Bile: 0.01 ± 0.00 % ID/g
  Blood: 0.00 ± 0.00 % ID/g
  Bone: 0.00 ± 0.00 % ID/g
  Bone Marrow: 0.00 ± 0.00 % ID/g
  Kidney: 0.06 ± 0.01 % ID/g
  Liver: 0.00 ± 0.00 % ID/g
  Lung: 0.00 ± 0.00 % ID/g
  Muscle: 0.00 ± 0.00 % ID/g
  Spleen: 0.01 ± 0.00 % ID/g
  Thyroid: 0.00 ± 0.00 % ID/g
  Urine: 0.25 ± 0.22 % ID/g
[2]; indicated by accumulation in kidneys
  Urinary elimination: high/rapid
[2]; inferred from liver uptake
  In vivo stability (release of ^64Cu from transchelation or transmetalation negligible): stable

## CC[N+](CC)(CC)CCCN1CCCN2CCN(CCCN(CC(=O)OC(C)(C)C)CC1)CC2.[64Cu+2] [^64Cu-13, [^64Cu]-3-(8-(2-tert-Butoxy-2-oxoethyl)-1,5,8,12-tetraazabicyclo[10.2.2]hexadecan-5-yl)-N,N,N-triethylpropan-1-aminium copper(II)]
[1]
  Articular Cartilage: 0.16 ± 0.06 % ID/g
  Bladder: 11.83 % ID/g
  Blood: 0.07 ± 0.01 % ID/g
  Kidney: 1.06 ± 0.66 % ID/g
  Muscle: 0.03 ± 0.01 % ID/g
  Liver: 0.06 ± 0.01 % ID/g

## CC[N+](CC)(CC)CCCN1CCCN2CCN(CCCN(CC(=O)O)CC1)CC2.[64Cu+2] [^64Cu-14, [^64Cu]-3-(8-(Carboxymethyl)-1,5,8,12-tetraazabicyclo[10.2.2]hexadecan-5-yl)-N,N,N-triethylpropan-1-aminium copper(II)]
[1]
  Articular Cartilage: 0.11 ± 0.02 % ID/g
  Bladder: 14.71 % ID/g
  Blood: 0.09 ± 0.04 % ID/g
  Kidney: 0.73 ± 0.22 % ID/g
  Muscle: 0.04 ± 0.00 % ID/g
  Liver: 0.06 ± 0.02 % ID/g

## CC[N+](CC)(CC)CCCN1CCCNCCN(Cc2ccccn2)CCCNCC1.[64Cu+2] [^64Cu-27, [^64Cu]—N,N,N-Triethyl-3-(8-(pyridin-2-ylmethyl)-1,4,8,11-tetraazacyclotetradecan-1-yl)propan-1-aminium copper(II)]
[1]
  Tumor: 1.4 ± 0.07 % ID/g
  Articular Cartilage: 1.5 ± 0.4 % ID/g
  Bladder: 30.5 ± 10.9 % ID/g
  Blood: 0.4 ± 0.07 % ID/g
  Kidney: 7.6 ± 4.6 % ID/g
  Muscle: 0.43 ± 0.15 % ID/g
  Liver: 1.2 ± 0.4 % ID/g

## CC[N+](CC)(CC)CCCN1CCCN(Cc2ccccn2)CCNCCCN(Cc2ccccn2)CC1.[64Cu+2] [^64Cu-30, [^64Cu]-3-(4,11-Bis(pyridin-2-ylmethyl)-1,4,8,11-tetraazacyclotetradecan-1-yl)-N,N,N-triethylpropan-1-aminium copper(II)]
[1]
  Tumor: 4.2 ± 0.6 % ID/g
  Articular Cartilage: 2.7 ± 0.4 % ID/g
  Bladder: 25.2 ± 10.6 % ID/g
  Blood: 0.7 ± 0.2 % ID/g
  Kidney: 9.2 ± 0.9 % ID/g
  Muscle: 0.80 ± 0.4 % ID/g

— patent publication US10351539B2, “Macrocyclic complexes, their process of preparation and use as PET imaging agents” (INSTITUT NATIONAL DE LA SANTE ET DE LA RECHERCHE MEDICALE …, priority 2014, dated 2019)
